Measured values: the NIST ThermoML archive (doi:10.1021/acs.jced.8b00729)
Numbers after ± are expanded uncertainties.

Conditions: Gamma attenuation method

C1C[C@@H]2[C@H]3CC[C@H](C3)[C@@H]2C1 [exo-tetrahydrodicyclopentadiene]
Conditions	mass density [kg/m3]
267.3 K, 1480 kPa, Liquid	961.5 ± 15
267.3 K, 6000 kPa, Liquid	962.3 ± 15
267.9 K, 700 kPa, Liquid	960.4 ± 15
267.9 K, 3060 kPa, Liquid	962.1 ± 15
289.1 K, 6000 kPa, Liquid	952 ± 15
290.2 K, 1480 kPa, Liquid	939.1 ± 15
290.9 K, 700 kPa, Liquid	937.8 ± 15
292.8 K, 3060 kPa, Liquid	940.4 ± 15
307 K, 700 kPa, Liquid	924.7 ± 15
307.5 K, 1480 kPa, Liquid	928.1 ± 15
308.7 K, 3060 kPa, Liquid	930.1 ± 15
309 K, 6000 kPa, Liquid	940.8 ± 15
335.4 K, 6000 kPa, Liquid	918.1 ± 15
336.6 K, 3060 kPa, Liquid	911.5 ± 15
337.1 K, 700 kPa, Liquid	908.7 ± 15
337.2 K, 1480 kPa, Liquid	910.1 ± 15
368.4 K, 700 kPa, Liquid	881.1 ± 15
369.6 K, 1480 kPa, Liquid	884.2 ± 15
371.3 K, 3060 kPa, Liquid	884.3 ± 15
373.9 K, 6000 kPa, Liquid	893.8 ± 15
391.4 K, 6000 kPa, Liquid	883.9 ± 15
391.9 K, 700 kPa, Liquid	861.9 ± 15
394.8 K, 1480 kPa, Liquid	863.2 ± 15
394.8 K, 3060 kPa, Liquid	864.7 ± 15
430.8 K, 6000 kPa, Liquid	850.6 ± 15
431.4 K, 700 kPa, Liquid	824.8 ± 15
431.4 K, 1480 kPa, Liquid	832.6 ± 15
431.4 K, 3060 kPa, Liquid	834.1 ± 15
453.2 K, 3060 kPa, Liquid	820.5 ± 15
453.8 K, 700 kPa, Liquid	801.2 ± 15
454.4 K, 1480 kPa, Liquid	815.4 ± 15
454.6 K, 6000 kPa, Liquid	829.8 ± 15
483.1 K, 1480 kPa, Liquid	796.7 ± 15
483.8 K, 700 kPa, Liquid	779.5 ± 15
485.1 K, 3060 kPa, Liquid	800.4 ± 15
485.9 K, 6000 kPa, Liquid	807 ± 15
510 K, 700 kPa, Liquid	759.3 ± 15
510.1 K, 1480 kPa, Liquid	772.1 ± 16
510.3 K, 3060 kPa, Liquid	783.9 ± 15
512.1 K, 6000 kPa, Liquid	777.4 ± 16
529.9 K, 3060 kPa, Liquid	756 ± 15
530.4 K, 1480 kPa, Liquid	743 ± 15
531.9 K, 6000 kPa, Liquid	752.2 ± 15
532.4 K, 700 kPa, Liquid	737.7 ± 17
562.1 K, 700 kPa, Liquid	646.3 ± 18
563.8 K, 1480 kPa, Liquid	716.9 ± 16
564.1 K, 3060 kPa, Liquid	726.9 ± 16
566.8 K, 6000 kPa, Liquid	719.2 ± 15
603.4 K, 700 kPa, Gas	25.5 ± 5.2
617.6 K, 1480 kPa, Gas	153.4 ± 11
623.8 K, 6000 kPa, Liquid	661.1 ± 16
627.1 K, 3060 kPa, Liquid	633.8 ± 16
651.6 K, 700 kPa, Gas	22.9 ± 5
651.9 K, 3060 kPa, Liquid	590.9 ± 16
652.4 K, 6000 kPa, Liquid	615.5 ± 16
652.9 K, 1480 kPa, Gas	55.3 ± 7.3
681.8 K, 6000 kPa, Liquid	579.7 ± 16
682.7 K, 700 kPa, Gas	29.4 ± 5
683.2 K, 1480 kPa, Gas	57.8 ± 5
685 K, 3060 kPa, Gas	193.2 ± 9.5
714 K, 6000 kPa, Gas	465.2 ± 25
715 K, 3060 kPa, Gas	124.1 ± 7.3
715.8 K, 1480 kPa, Gas	58 ± 5
730.2 K, 700 kPa, Gas	19.5 ± 5
743.7 K, 3060 kPa, Gas	104.8 ± 5.3
743.8 K, 6000 kPa, Gas	256.7 ± 19
744 K, 1480 kPa, Gas	52.4 ± 5
744.7 K, 700 kPa, Gas	19.7 ± 5
771.9 K, 700 kPa, Gas	26.4 ± 5
773.7 K, 1480 kPa, Gas	50.2 ± 5
773.7 K, 6000 kPa, Gas	152.1 ± 8.3
774 K, 3060 kPa, Gas	96.1 ± 5.1
803.3 K, 700 kPa, Gas	24.4 ± 5
803.8 K, 3060 kPa, Gas	87.6 ± 5.1
804 K, 1480 kPa, Gas	47.9 ± 5
804.1 K, 6000 kPa, Gas	142 ± 5.3
833 K, 700 kPa, Gas	25.4 ± 5
833.3 K, 1480 kPa, Gas	52.1 ± 5
833.4 K, 6000 kPa, Gas	120.1 ± 5.2
833.5 K, 3060 kPa, Gas	83.9 ± 5.1
872.2 K, 3060 kPa, Gas	70.8 ± 5.2
872.5 K, 1480 kPa, Gas	46.1 ± 5.1
873.3 K, 700 kPa, Gas	24.4 ± 5
873.4 K, 6000 kPa, Gas	110.1 ± 5.1
